Measurements taken from patent US6316500A, “Aliphatically unsaturated hydroxy benzoates and preservative compositions thereof” (ISP Investments Inc., priority 1999, dated 2001).

Key:
[1] = test system: A. niger 16404; test: Activity test: preservative challenge test in emulsion, A. niger 16404; type: cell-based; conditions: 0.5% preservative in emulsion; for number of colonies per milliliter, 28 days: reinoculated at 21 days
Method: (§1) The emulsion was prepared by separately mixing components in phase A and phase B at 75-80° C. for 15 minutes. The phases were then combined and mixed for another 10 minutes and cooled to 45° C. with stirring. Preservative was then added followed by citric acid to adjust pH to from abut 6.5 to 7.5. Stirring of the resulting mixture was continued until a temperature of 30° C. was reached. The activity tests were carried out using the following microorganisms: A. niger, B. cepacia, C. albicans, E. coli, P. aeruginosa and S. aureus. 50 g aliquots of the test emulsion containing various amounts of the preservative admixture as reported in Tables I-V were inoculated with approximately 10^7 -10^8 of the test organisms. The test samples then were stirred to disperse the challenge inoculum. The samples were incubated and assayed at 48 hours, 7, 14, 21 and 28 days. The assays were performed on 1 g, of the test sample by serially diluting 10^3 to 10^6 of the original concentration. The plating medium for bacteria was Letheen agar and for fungi it was low pH Mycophil agar with Tween 20. Each plated sample was incubated for 48 hours at 37° C. for bacteria, 5 days at 25° C. for mold and 3 days at 25° C. for fungi. After incubation, readings of the number of colonies per milliliter (cfu/ml) were made results were determined, as reported in associated Tables IA-VA. At 21 days the test product was reinoculated with half of the original inoculum.

[2] = test system: B. cepacia 25416; test: Activity test: preservative challenge test in emulsion, B. cepacia 25416; type: cell-based; conditions: 0.5% preservative in emulsion; for number of colonies per milliliter, 28 days: reinoculated at 21 days
Method: as §1

[3] = test system: C. albicans 10231; test: Activity test: preservative challenge test in emulsion, C. albicans 10231; type: cell-based; conditions: 0.5% preservative in emulsion; for number of colonies per milliliter, 28 days: reinoculated at 21 days
Method: as §1

[4] = test system: E. coli 8739; test: Activity test: preservative challenge test in emulsion, E. coli 8739; type: cell-based; conditions: 0.5% preservative in emulsion; for number of colonies per milliliter, 28 days: reinoculated at 21 days
Method: as §1

[5] = test system: P. aeruginosa 9027; test: Activity test: preservative challenge test in emulsion, P. aeruginosa 9027; type: cell-based; conditions: 0.5% preservative in emulsion; for number of colonies per milliliter, 28 days: reinoculated at 21 days
Method: as §1

[6] = test system: S. aureus 6538; test: Activity test: preservative challenge test in emulsion, S. aureus 6538; type: cell-based; conditions: 0.5% preservative in emulsion; for number of colonies per milliliter, 28 days: reinoculated at 21 days
Method: as §1

[7] = Partition coefficients (log of oil/water solubility)
Text: A greater water partitioning is indicated by a low log value.

Row | Structure (SMILES) | number of colonies per milliliter, 48 hr [1] | number of colonies per milliliter, 7 days [1] | number of colonies per milliliter, 14 days [1] | number of colonies per milliliter, 21 days [1] | number of colonies per milliliter, 28 days [1] | number of colonies per milliliter, 48 hr [2] | number of colonies per milliliter, 7 days [2] | number of colonies per milliliter, 14 days [2] | number of colonies per milliliter, 21 days [2] | number of colonies per milliliter, 28 days [2] | number of colonies per milliliter, 48 hr [3] | number of colonies per milliliter, 7 days [3] | number of colonies per milliliter, 14 days [3] | number of colonies per milliliter, 21 days [3] | number of colonies per milliliter, 28 days [3] | number of colonies per milliliter, 48 hr [4] | number of colonies per milliliter, 7 days [4] | number of colonies per milliliter, 14 days [4] | number of colonies per milliliter, 21 days [4] | number of colonies per milliliter, 28 days [4] | further results
1 | CC=CC=CCOC(=O)c1ccc(O)cc1 [2,4-Hexadienyl-4-Hydroxybenzoate] | 4800 cfu/ml | < 10 cfu/ml | < 10 cfu/ml | < 10 cfu/ml | < 10 cfu/ml | < 10^6 cfu/ml | < 10^6 cfu/ml | < 10^6 cfu/ml | < 10^6 cfu/ml | < 10^6 cfu/ml | < 10 cfu/ml | < 10 cfu/ml | < 10 cfu/ml | < 10 cfu/ml | < 10 cfu/ml | < 10 cfu/ml | < 10 cfu/ml | < 10 cfu/ml | < 10 cfu/ml | < 10 cfu/ml | number of colonies per milliliter, 48 hr [5]: < 10 cfu/ml; number of colonies per milliliter, 7 days [5]: < 10 cfu/ml; number of colonies per milliliter, 14 days [5]: < 10 cfu/ml; number of colonies per milliliter, 21 days [5]: < 10 cfu/ml; number of colonies per milliliter, 28 days [5]: < 10 cfu/ml; number of colonies per milliliter, 48 hr [6]: < 10 cfu/ml; number of colonies per milliliter, 7 days [6]: < 10 cfu/ml; number of colonies per milliliter, 14 days [6]: < 10 cfu/ml; number of colonies per milliliter, 21 days [6]: < 10 cfu/ml; number of colonies per milliliter, 28 days [6]: < 10 cfu/ml
2 | CC=CC=CCOC(=O)c1ccc(O)cc1O [2,4-Hexadienyl-2,4-dihydroxybenzoate, 2,4-Hexadienyl-2,4-Dihydroxybenzoate] | 4200 cfu/ml | 30 cfu/ml | < 10 cfu/ml | < 10 cfu/ml | < 10 cfu/ml | < 10^6 cfu/ml | < 10^6 cfu/ml | < 10^6 cfu/ml | < 10^6 cfu/ml | < 10^6 cfu/ml | < 10 cfu/ml | < 10 cfu/ml | < 10 cfu/ml | < 10 cfu/ml | < 10 cfu/ml | < 10 cfu/ml | < 10 cfu/ml | < 10 cfu/ml | < 10 cfu/ml | < 10 cfu/ml | number of colonies per milliliter, 48 hr [5]: < 10 cfu/ml; number of colonies per milliliter, 7 days [5]: < 10 cfu/ml; number of colonies per milliliter, 14 days [5]: < 10 cfu/ml; number of colonies per milliliter, 21 days [5]: < 10 cfu/ml; number of colonies per milliliter, 28 days [5]: < 10 cfu/ml; number of colonies per milliliter, 48 hr [6]: < 10 cfu/ml; number of colonies per milliliter, 7 days [6]: < 10 cfu/ml; number of colonies per milliliter, 14 days [6]: < 10 cfu/ml; number of colonies per milliliter, 21 days [6]: < 10 cfu/ml; number of colonies per milliliter, 28 days [6]: < 10 cfu/ml
3 | CCCCOC(=O)c1ccc(O)cc1 [Parahydroxy butyl benzoate] |  |  |  |  |  |  |  |  |  |  |  |  |  |  |  |  |  |  |  |  | Log P [7]: 3.57
4 | C#CCOC(=O)c1ccc(O)c(O)c1 [Propargyl 3,4-Dihydroxybenzoate] | < 10 cfu/ml | < 10 cfu/ml | < 10 cfu/ml | < 10 cfu/ml | < 10 cfu/ml | < 10 cfu/ml | < 10 cfu/ml | < 10 cfu/ml | < 10 cfu/ml | < 10 cfu/ml | < 10 cfu/ml | < 10 cfu/ml | < 10 cfu/ml | < 10 cfu/ml | < 10 cfu/ml | < 10 cfu/ml | < 10 cfu/ml | < 10 cfu/ml | < 10 cfu/ml | < 10 cfu/ml | number of colonies per milliliter, 48 hr [5]: < 10 cfu/ml; number of colonies per milliliter, 7 days [5]: < 10 cfu/ml; number of colonies per milliliter, 14 days [5]: < 10 cfu/ml; number of colonies per milliliter, 21 days [5]: < 10 cfu/ml; number of colonies per milliliter, 28 days [5]: < 10 cfu/ml; number of colonies per milliliter, 48 hr [6]: < 10 cfu/ml; number of colonies per milliliter, 7 days [6]: < 10 cfu/ml; number of colonies per milliliter, 14 days [6]: < 10 cfu/ml; number of colonies per milliliter, 21 days [6]: < 10 cfu/ml; number of colonies per milliliter, 28 days [6]: < 10 cfu/ml
